EC50 data for 36 compounds are collected here from patent publication US12486254B2, “Uracil derivatives for stimulating read-through of premature termination codons” (Southern Research Institute, priority 2022, dated 2025).

The structures appear in SMILES notation. pEC50: −log10 of the molar value. Where only a bound is given, the exact number is not on record here.

The pEC50 is the negative decadic logarithm of the EC50, by convention in mol/L.

The subject of test [1] is G542X#10-HBE5x5. In words: Read-through of a premature termination codon, G542X#10-HBE5x5 (Table 3). Type of test: cell-based. The conditions noted are these: with G418. On the procedure:
(§1) The compounds shown in Table 1 were evaluated for their ability to stimulate read-through of a premature termination codon, and their respective activities are shown in Tables 2 and 3 below.

For test [2], the system named is W134X-CF#14 FRT. In words: Read-through of a premature termination codon, W134X-CF#14 FRT data, with G418. Type of test: cell-based. As to conditions: in presence of G418. On the procedure: as §1

In test [1], `CCn1c(=O)c(C(=O)CN(CC(=O)NC)C(C)C)c(N)n(Cc2ccccc2)c1=O` [1.39] showed a pEC50 not above 4.00.

In turn, `CCn1c(=O)c(C(=O)CN(CC(=O)N(C)C)C(C)C)c(N)n(Cc2ccccc2)c1=O` [1.40] had a pEC50 in test [1] not above 4.00.

Regarding `NC(=O)C1CCCCN1CC(=O)c1c(N)n(Cc2ccc(F)cc2)c(=O)n(CCC(=O)O)c1=O` (stereo not drawn) [1.228], in test [1], the pEC50 is not above 4.00.

Consider `CCn1c(=O)c(C(=O)CNC(COC)c2ccccc2)c(N)n(Cc2ccc(F)cc2)c1=O` (stereo not drawn) [1.180], for which the pEC50 in test [1] is 4.14.

For the compound `CCn1c(=O)c(C(=O)CN2CCN(C)C(=O)C2)c(N)n(Cc2ccc(F)cc2)c1=O` [1.216], the pEC50 in test [1] is not above 4.00.

On to `CCn1c(=O)c(C(=O)CN2CCCCC2C(N)=O)c(N)n(Cc2ccc(F)c(OC)c2)c1=O` (stereo not drawn) [1.164], for which the pEC50 in test [1] was not above 4.00.

`CCn1c(=O)c(C(=O)CN2CCC[C@H]2C(=O)OC)c(N)n(Cc2ccccc2)c1=O` [1.23]: the pEC50 in test [1] was not above 4.00.

In the case of `CCn1c(=O)c(C(=O)CN2CCCC[C@@H]2C(=O)N2CCCCC2)c(N)n(Cc2ccc(F)cc2)c1=O` [1.129], in test [1], the pEC50 is not above 4.00.

Take `CCn1c(=O)c(C(=O)CN2CCCC[C@@H]2C(=O)NCC2CC2)c(N)n(Cc2ccc(F)cc2)c1=O` [1.174]: in test [1], the pEC50 was not above 4.00.

In test [1], `CCn1c(=O)c(C(=O)CN2CCCCC2c2nc3ccccc3n2C)c(N)n(Cc2ccccc2)c1=O` (stereo not drawn) [1.105] showed a pEC50 not above 4.00.

`CCn1c(=O)c(C(=O)CN2CCCC[C@@H]2C(N)=O)c(N)n(Cc2ccc(C(F)F)cc2)c1=O` [2.12]: in test [1], the pEC50 was not above 4.52.

In the case of `CCn1c(=O)c(C(=O)CN(C(C)C)C(C)(C)C(N)=O)c(N)n(Cc2ccc(F)cc2)c1=O` [2.19], the pEC50 in test [1] was not above 4.52.

Take `CCn1c(=O)c(C(=O)CN(CC(=O)N(C)C)C(C)C)c(N)n(Cc2ccc(F)cc2)c1=O` [1.139]: in test [1], the pEC50 was not above 4.00.

Compound `CCn1c(=O)c(C(=O)CN2CCCC[C@@H]2C(N)=O)c(N)n(Cc2ccc(Cl)c(F)c2)c1=O` [2.18] had a pEC50 in test [1] not above 4.52.

The compound `CCn1c(=O)c(C(=O)CN[C@H](C(N)=O)C(C)C)c(N)n(Cc2ccc(F)cc2)c1=O` [1.187] showed a pEC50 in test [1] not above 4.00.

As for `CCn1c(=O)c(C(=O)CN2CCCC[C@@H]2C(N)=O)c(N)n(Cc2ccc(F)cn2)c1=O` [2.22], the negative-log EC50 (pEC50) in test [1] is not above 4.52.

The compound `CCn1c(=O)c(C(=O)CN[C@H](C(=O)OC)C(C)C)c(N)n(Cc2ccccc2)c1=O` [1.15] had a pEC50 in test [1] not above 4.00.

Compound `CCn1c(=O)c(C(=O)CN2CCCCC2c2nc3ccccc3[nH]2)c(N)n(Cc2ccccc2)c1=O` (stereo not drawn) [1.106] showed a pEC50 in test [1] not above 4.00.

As for `CCn1c(=O)c(C(=O)CN2CCCC[C@@H]2C(=O)N2CCCC2)c(N)n(Cc2ccc(F)cc2)c1=O` [2.5], the pEC50 in test [1] is not above 4.52.

For the compound `CCN(CC)C(=O)[C@H]1CCCCN1CC(=O)c1c(N)n(Cc2ccc(F)cc2)c(=O)n(CC)c1=O` [2.4], in test [1], the pEC50 is not above 4.52.

On to `CCn1c(=O)c(C(=O)CN2CCCC[C@@H]2C(N)=O)c(N)n(Cc2cccc(C)n2)c1=O` [2.8], for which the pEC50 in test [1] was not above 4.52.

In test [1], `CCn1c(=O)c(C(=O)CN(CC(N)=O)C2CC2)c(N)n(Cc2ccccc2)c1=O` [1.35] gave a pEC50 not above 4.00.

Regarding `NC(=O)C1CCCCN1CC(=O)c1c(N)n(Cc2ccccc2)c(=O)n(C2CCCCC2)c1=O` (stereo not drawn) [1.51], in test [1], the pEC50 is not above 4.00.

Consider `CCN(CC(=O)c1c(N)n(Cc2ccccc2)c(=O)n(CC)c1=O)C(C(N)=O)C(C)C` (stereo not drawn) [1.77], for which the pEC50 in test [2] is 4.51.

On to `CCn1c(=O)c(C(=O)CN2CCCC2C(=O)N(C)C)c(N)n(Cc2ccccc2)c1=O` (stereo not drawn) [1.98], for which the pEC50 in test [2] was 4.37.

`CC(C)n1c(=O)c(C(=O)CN2CCCCC2C(N)=O)c(N)n(Cc2ccccc2)c1=O` (stereo not drawn) [1.44]: the pEC50 in test [2] is 4.64.

Take `CCn1c(=O)c(C(=O)CN2CCCC[C@H]2C(N)=O)c(N)n(Cc2ccccc2)c1=O` [1.49]: in test [2], the pEC50 was 4.23.

Turning to `CCn1c(=O)c(C(=O)CN2CCN(C(=O)OC(C)(C)C)CC2C(N)=O)c(N)n(Cc2ccccc2)c1=O` (stereo not drawn) [1.52], the pEC50 in test [2] was not above 4.00.

Take `CCC(C)C1CCCCN1CC(=O)c1c(N)n(Cc2ccc(F)cc2)c(=O)n(CC)c1=O` (stereo not drawn) [1.202]: in test [2], the pEC50 is 5.26.

Turning to `NC(=O)C1CCCCN1CC(=O)c1c(N)n(Cc2ccccc2)c(=O)n(C2CC2)c1=O` (stereo not drawn) [1.45], the pEC50 in test [2] was not above 4.00.

Turning to `CCn1c(=O)c(C(=O)CN2CCCCC2C(N)=O)c(N)n(Cc2ccc(F)cc2OC)c1=O` (stereo not drawn) [1.154], in test [2], the pEC50 is 4.16.

Turning to `CCn1c(=O)c(C(=O)CN2CCCCC2C(N)=O)c(N)n(Cc2ccc(F)cc2F)c1=O` (stereo not drawn) [1.146], the pEC50 in test [2] is 5.07.

With `CCn1c(=O)c(C(=O)CN2CCCCC2C(=O)NC(C)C)c(N)n(Cc2ccccc2)c1=O` (stereo not drawn) [1.70], the pEC50 in test [2] is 4.55.

Take `CCn1c(=O)c(C(=O)CN2CCCC[C@@H]2C(=O)NCC(F)(F)F)c(N)n(Cc2ccc(F)cc2)c1=O` [1.197]: the pEC50 in test [2] is 5.41.

As to `CCn1c(=O)c(C(=O)CN2CCCC[C@@H]2C(=O)NCc2ccc(F)cc2)c(N)n(Cc2ccccc2)c1=O` [1.155], the pEC50 in test [2] is 5.50.

On to `CCn1c(=O)c(C(=O)CN2CCCCC2C(=O)N2CCCC2)c(N)n(Cc2ccccc2)c1=O` (stereo not drawn) [1.85], for which the pEC50 in test [2] is 4.55.
